Columns and labels:
Surinam grass = experiment: Test B pre-/postemergence herbicide test; type: in vivo, Urochloa decumbens; settings: for Surinam Grass plant response rating: postemergence, visual rating
Procedure, shortened: (§1)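 Evaluation is visual, comparing treated with control plants on a scale where 0 means no effect and 100 means full control. Treatments were preemergence, or postemergence on seedlings 2–18 cm tall, and held 13–15 days in the greenhouse.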

pigweed = experiment: Test B pre-/postemergence herbicide test; type: in vivo, Amaranthus retroflexus; settings: for Pigweed plant response rating: postemergence, visual rating
Procedure, shortened: as §1

rice = experiment: Test B flooded paddy test; type: in vivo, Oryza sativa; settings: 1000 g ai/ha, visual rating, scale 0 to 100 (0 no effect, 100 complete control), 13 to 15 days
Procedure, shortened: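 Each value is a visual 0–100 response rating taken against controls 13 to 15 days after treatment in the greenhouse. Plants received formulated chemical postemergence at the 1- to 4-leaf stage or, in flooded paddy, at the 2-leaf stage.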

barnyardgrass [1] = experiment: Test B pre-/postemergence herbicide test; type: in vivo, Echinochloa crus-galli
Procedure, shortened: (§2)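 Greenhouse pot assay with simultaneous preemergence (treated seed) and postemergence (2–18 cm seedlings) applications of surfactant-containing, non-phytotoxic solvent formulations. Response scored visually 13–15 days later on a 0–100 scale, 100 meaning complete control.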

blackgrass = experiment: Test B postemergence herbicide test; type: in vivo, Alopecurus myosuroides; settings: scale 0 (no effect) to 100 (complete control); for Plant response rating, Blackgrass: Postemergence, 500 g ai/ha, visual rating after 13 to 15 days; for Blackgrass plant response rating: postemergence, 125 g ai/ha, visual rating
Procedure, shortened: (§3)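 Greenhouse test; postemergence application to plants at 1–4 leaves (2–18 cm); paddy species at 2 leaves; evaluated visually vs controls at 13–15 days; scale 0–100 (100 = complete control).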

giant foxtail = experiment: Test B pre-/postemergence herbicide test; type: in vivo, Setaria faberi
Procedure, shortened: as §1

wild oat = experiment: Test B postemergence herbicide test; type: in vivo, Avena fatua; settings: scale 0 (no effect) to 100 (complete control); for Plant response rating, Oat, Wild: Postemergence, 500 g ai/ha, visual rating after 13 to 15 days; for Oat, Wild plant response rating: postemergence, 125 g ai/ha, visual rating
Procedure, shortened: (§4)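 Read-out: visual comparison with controls, scored 0 to 100, where 100 means complete control and 0 no effect. Formulated chemicals were applied postemergence to plants 2–18 cm tall (1- to 4-leaf), or to flooded-paddy plants at the 2-leaf stage, then held 13 to 15 days under glass.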

wheat = experiment: Test B postemergence herbicide test; type: in vivo, Triticum aestivum; parameters: key to Wheat plant response rating: 0 = no effect, 100 = complete control; settings: scale 0 (no effect) to 100 (complete control); for Plant response rating, Wheat: Postemergence, 500 g ai/ha, visual rating after 13 to 15 days; for Wheat plant response rating: postemergence, 125 g ai/ha, visual rating
Procedure, shortened: as §4

barnyardgrass [2] = experiment: Test B flooded paddy test; type: in vivo, Echinochloa crus-galli; settings: 1000 g ai/ha, visual rating, scale 0 to 100 (0 no effect, 100 complete control), 13 to 15 days
Procedure, shortened: as §3

morningglory = experiment: Test B pre-/postemergence herbicide test; type: in vivo, Ipomoea coccinea; settings: for Morningglory plant response rating: postemergence, visual rating
Procedure, shortened: as §2

ducksalad = experiment: Test B flooded paddy test; type: in vivo, Heteranthera limosa; settings: 1000 g ai/ha, visual rating, scale 0 to 100 (0 no effect, 100 complete control), 13 to 15 days
Procedure, shortened: as §3

large crabgrass = experiment: Test B pre-/postemergence herbicide test; type: in vivo, Digitaria sanguinalis
Procedure, shortened: as §1

cocklebur = experiment: Test B pre-/postemergence herbicide test; type: in vivo, Xanthium strumarium
Procedure, shortened: as §2

lambsquarters = experiment: Test B pre-/postemergence herbicide test; type: in vivo, Chenopodium album; settings: for Lambsquarters plant response rating: postemergence, visual rating
Procedure, shortened: as §1

corn = experiment: Test B pre-/postemergence herbicide test; type: in vivo, Zea mays
Procedure, shortened: as §1

[3] = tested on: small flower umbrella sedge; experiment: Test B flooded paddy test; type: in vivo, Cyperus difformis; settings: 1000 g ai/ha, visual rating, scale 0 to 100 (0 no effect, 100 complete control), 13 to 15 days
Procedure, shortened: as §3

[4] = Postemergence, 500 g ai/ha, visual rating after 13 to 15 days, scale 0 (no effect) to 100 (complete control)
[5] = 125 g ai/ha, scale 0 (no effect) to 100 (complete control)
[6] = preemergence, 125 g ai/ha, 0 to 100 scale, 0 is no effect, 100 is complete control
[7] = Preemergence, 500 g ai/ha, scale 0 to 100
[8] = postemergence, 125 g ai/ha, visual rating, scale 0 (no effect) to 100 (complete control)
[9] = 500 g ai/ha, visual rating 0-100, 0 no effect, 100 complete control, preemergence

CCOC(=O)c1cccc(NC(=O)c2cc(C(C)(C)C)nn2CC)c1C [Compound 88]
40: Rice plant response rating (rice) | Plant response rating, Foxtail, Giant (giant foxtail; [4])
30: Barnyardgrass plant response rating (barnyardgrass [1]; [8]) | Foxtail, Giant plant response rating (giant foxtail; [8]) | Crabgrass, Large plant response rating (large crabgrass; [8])
80: Ducksalad plant response rating (ducksalad) | Sedge, Umbrella plant response rating [3]
90: Barnyardgrass plant response rating (barnyardgrass [1]; [7]) | Foxtail, Giant plant response rating (giant foxtail; [7]) | Plant response rating, Crabgrass, Large (large crabgrass; [6])
100: Plant response rating, Pigweed (pigweed; [6]) | Crabgrass, Large plant response rating (large crabgrass; [7]) | Plant response rating, Lambsquarters (lambsquarters; [4]) | Plant response rating, Lambsquarters (lambsquarters; [6])
60: Plant response rating, Pigweed (pigweed; [4]) | Plant response rating, Barnyardgrass (barnyardgrass [1]; [4]) | Plant response rating, Crabgrass, Large (large crabgrass; [4]) | Corn plant response rating (corn; [7])
70: Plant response rating, Barnyardgrass (barnyardgrass [1]; [6]) | Plant response rating, Foxtail, Giant (giant foxtail; [6]) | Barnyardgrass plant response rating (barnyardgrass [2]) | Lambsquarters plant response rating (lambsquarters; [5]) | Plant response rating, Corn (corn; [4])
10: Cocklebur plant response rating (cocklebur; [8]) | Corn plant response rating (corn; [8])
0: Plant response rating, Surinam Grass (Surinam grass; [4]) | Surinam Grass plant response rating (Surinam grass; [5]) | Plant response rating, Blackgrass (blackgrass) | Blackgrass plant response rating (blackgrass) | Plant response rating, Oat, Wild (wild oat) | Oat, Wild plant response rating (wild oat) | Plant response rating, Wheat (wheat) | Wheat plant response rating (wheat) | Plant response rating, Morningglory (morningglory; [4]) | Morningglory plant response rating (morningglory; [5]) | Plant response rating, Morningglory (morningglory; [6]) | Cocklebur plant response rating (cocklebur; [7]) | Plant response rating, Cocklebur (cocklebur; [6]) | Plant response rating, Corn (corn; [6])
20: Plant response rating, Surinam Grass (Surinam grass; [6])
50: Pigweed plant response rating (pigweed; [5]) | Plant response rating, Cocklebur (cocklebur; [4])

CCOC(=O)c1cc(NC(=O)c2cc(C(C)(C)C)nn2CC)ccc1OC [Compound 96]
30: Plant response rating, Surinam Grass (Surinam grass; [4]) | Foxtail, Giant plant response rating (giant foxtail; [8])
100: Plant response rating, Pigweed (pigweed; [9]) | Plant response rating, Pigweed (pigweed; [4]) | Plant response rating, Pigweed (pigweed; [6]) | Plant response rating, Crabgrass, Large (large crabgrass; [9]) | Plant response rating, Cocklebur (cocklebur; [4]) | Plant response rating, Lambsquarters (lambsquarters; [9]) | Plant response rating, Lambsquarters (lambsquarters; [4]) | Lambsquarters plant response rating (lambsquarters; [5]) | Plant response rating, Lambsquarters (lambsquarters; [6])
0: Barnyardgrass plant response rating (barnyardgrass [1]; [8]) | Blackgrass plant response rating (blackgrass) | Plant response rating, Morningglory (morningglory; [4]) | Morningglory plant response rating (morningglory; [5]) | Plant response rating, Morningglory (morningglory; [6]) | Plant response rating, Cocklebur (cocklebur; [9]) | Plant response rating, Cocklebur (cocklebur; [6])
60: Plant response rating, Foxtail, Giant (giant foxtail; [6])
10: Wheat plant response rating (wheat) | Plant response rating, Morningglory (morningglory; [9]) | Corn plant response rating (corn; [8])
80: Plant response rating, Surinam Grass (Surinam grass; [9]) | Barnyardgrass plant response rating (barnyardgrass [2])
40: Crabgrass, Large plant response rating (large crabgrass; [8]) | Plant response rating, Corn (corn; [6])
50: Plant response rating, Barnyardgrass (barnyardgrass [1]; [4]) | Plant response rating, Foxtail, Giant (giant foxtail; [4]) | Plant response rating, Crabgrass, Large (large crabgrass; [4])
70: Pigweed plant response rating (pigweed; [5]) | Rice plant response rating (rice) | Plant response rating, Barnyardgrass (barnyardgrass [1]; [6]) | Plant response rating, Corn (corn; [9])
20: Surinam Grass plant response rating (Surinam grass; [5]) | Plant response rating, Surinam Grass (Surinam grass; [6]) | Plant response rating, Blackgrass (blackgrass) | Plant response rating, Oat, Wild (wild oat) | Oat, Wild plant response rating (wild oat) | Plant response rating, Wheat (wheat) | Plant response rating, Crabgrass, Large (large crabgrass; [6]) | Plant response rating, Corn (corn; [4])
90: Plant response rating, Barnyardgrass (barnyardgrass [1]; [9]) | Plant response rating, Foxtail, Giant (giant foxtail; [9]) | Ducksalad plant response rating (ducksalad) | Cocklebur plant response rating (cocklebur; [8]) | Sedge, Umbrella plant response rating [3]

C=Cn1nc(C(C)(C)C)cc1C(=O)Nc1cccc(C(C)=NO)c1 [Compound 114]
80: Plant response rating, Pigweed (pigweed; [6]) | Plant response rating, Barnyardgrass (barnyardgrass [1]; [9]) | Ducksalad plant response rating (ducksalad) | Cocklebur plant response rating (cocklebur; [8]) | Lambsquarters plant response rating (lambsquarters; [5])
30: Plant response rating, Surinam Grass (Surinam grass; [9]) | Plant response rating, Barnyardgrass (barnyardgrass [1]; [4]) | Plant response rating, Blackgrass (blackgrass) | Plant response rating, Foxtail, Giant (giant foxtail; [4]) | Foxtail, Giant plant response rating (giant foxtail; [8]) | Crabgrass, Large plant response rating (large crabgrass; [8])
0: Plant response rating, Corn (corn; [6])
50: Rice plant response rating (rice) | Plant response rating, Barnyardgrass (barnyardgrass [1]; [6]) | Plant response rating, Foxtail, Giant (giant foxtail; [6])
100: Plant response rating, Pigweed (pigweed; [9]) | Plant response rating, Pigweed (pigweed; [4]) | Plant response rating, Crabgrass, Large (large crabgrass; [9]) | Plant response rating, Lambsquarters (lambsquarters; [9]) | Plant response rating, Lambsquarters (lambsquarters; [6])
20: Plant response rating, Surinam Grass (Surinam grass; [4]) | Plant response rating, Surinam Grass (Surinam grass; [6]) | Barnyardgrass plant response rating (barnyardgrass [1]; [8]) | Plant response rating, Wheat (wheat) | Wheat plant response rating (wheat)
10: Surinam Grass plant response rating (Surinam grass; [5]) | Blackgrass plant response rating (blackgrass) | Plant response rating, Oat, Wild (wild oat) | Oat, Wild plant response rating (wild oat) | Plant response rating, Morningglory (morningglory; [6]) | Plant response rating, Cocklebur (cocklebur; [9]) | Plant response rating, Cocklebur (cocklebur; [6]) | Plant response rating, Corn (corn; [9])
70: Barnyardgrass plant response rating (barnyardgrass [2])
90: Pigweed plant response rating (pigweed; [5]) | Plant response rating, Foxtail, Giant (giant foxtail; [9]) | Plant response rating, Crabgrass, Large (large crabgrass; [6]) | Plant response rating, Cocklebur (cocklebur; [4]) | Plant response rating, Lambsquarters (lambsquarters; [4]) | Sedge, Umbrella plant response rating [3]
40: Plant response rating, Crabgrass, Large (large crabgrass; [4])

CC(=NO)c1cccc(NC(=O)c2cc(C(C)(C)C)nn2CCF)c1 [Compound 115]
70: Plant response rating, Surinam Grass (Surinam grass; [9]) | Plant response rating, Surinam Grass (Surinam grass; [6])
60: Plant response rating, Surinam Grass (Surinam grass; [4]) | Surinam Grass plant response rating (Surinam grass; [5]) | Rice plant response rating (rice)
90: Barnyardgrass plant response rating (barnyardgrass [2]) | Plant response rating, Morningglory (morningglory; [9]) | Ducksalad plant response rating (ducksalad) | Plant response rating, Crabgrass, Large (large crabgrass; [6]) | Plant response rating, Cocklebur (cocklebur; [4]) | Sedge, Umbrella plant response rating [3]
40: Plant response rating, Cocklebur (cocklebur; [9])
30: Plant response rating, Foxtail, Giant (giant foxtail; [4]) | Plant response rating, Oat, Wild (wild oat) | Plant response rating, Wheat (wheat) | Wheat plant response rating (wheat) | Plant response rating, Morningglory (morningglory; [6]) | Plant response rating, Crabgrass, Large (large crabgrass; [4]) | Plant response rating, Corn (corn; [9])
20: Plant response rating, Blackgrass (blackgrass) | Foxtail, Giant plant response rating (giant foxtail; [8]) | Plant response rating, Cocklebur (cocklebur; [6])
50: Plant response rating, Barnyardgrass (barnyardgrass [1]; [4])
80: Pigweed plant response rating (pigweed; [5]) | Plant response rating, Pigweed (pigweed; [6]) | Plant response rating, Barnyardgrass (barnyardgrass [1]; [6]) | Plant response rating, Foxtail, Giant (giant foxtail; [6]) | Cocklebur plant response rating (cocklebur; [8]) | Lambsquarters plant response rating (lambsquarters; [5])
10: Barnyardgrass plant response rating (barnyardgrass [1]; [8]) | Blackgrass plant response rating (blackgrass) | Oat, Wild plant response rating (wild oat) | Crabgrass, Large plant response rating (large crabgrass; [8])
100: Plant response rating, Pigweed (pigweed; [9]) | Plant response rating, Pigweed (pigweed; [4]) | Plant response rating, Barnyardgrass (barnyardgrass [1]; [9]) | Plant response rating, Foxtail, Giant (giant foxtail; [9]) | Plant response rating, Crabgrass, Large (large crabgrass; [9]) | Plant response rating, Lambsquarters (lambsquarters; [9]) | Plant response rating, Lambsquarters (lambsquarters; [4]) | Plant response rating, Lambsquarters (lambsquarters; [6])
0: Plant response rating, Corn (corn; [6])

From US20060069132A1, “Azolecarboxamide herbicides” (priority 2004, published 2006)
